Organism: Rattus norvegicus
Test: DrugMatrix - Regimen: Daily Repeat
Format: toxicity, organism-based, Sprague-Dawley
Set-up: regimen Daily Repeat, gender Male, age 6-8 weeks
Conditions: in vivo, po, route oral GAVAGE, […]; for ABSOLUTE BASOPHIL / ABSOLUTE EOSINOPHIL / ABSOLUTE LYMPHOCYTE / ABSOLUTE MONOCYTE / ABSOLUTE SEGMENTED NEUTROPHIL / BASOPHIL / EOSINOPHIL / ERYTHROCYTE COUNT / HEMATOCRIT / HEMOGLOBIN / LEUKOCYTE COUNT / LYMPHOCYTE / MEAN CORPUSCULAR HEMOGLOBIN / MEAN CORPUSCULAR HEMOGLOBIN CONCENTRATION / MEAN CORPUSCULAR VOLUME / MONOCYTE / NEUTROPHIL / NUCLEATED RED BLOOD CELLS / PLATELET COUNT: tissue Blood; for ALANINE AMINOTRANSFERASE / ALBUMIN / ALKALINE PHOSPHATASE / ASPARTATE AMINOTRANSFERASE / BLOOD UREA NITROGEN / CARBON DIOXIDE / CHLORIDE / CHOLESTEROL / CREATINE PHOSPHOKINASE / CREATININE / GLUCOSE / LACTATE DEHYDROGENASE / LIPASE / PHOSPHORUS / POTASSIUM / SODIUM / TOTAL BILIRUBIN / TOTAL PROTEIN / URIC ACID: tissue Plasma
[1] = 10 mg/kg, 120 h, dose level Low, time 5 day
[2] = 250 mg/kg, 72 h, dose level High, time 3 day
[3] = 250 mg/kg, 120 h, dose level High, time 5 day

## COc1cc(N)c(Cl)cc1C(=O)NC1CCN(CCCOc2ccc(F)cc2)CC1OC (centres undefined) [CISAPRIDE]
[1]
  ABSOLUTE BASOPHIL: 0 CELLS/uL
  ABSOLUTE EOSINOPHIL: 0 CELLS/uL
  ABSOLUTE LYMPHOCYTE: 8665 CELLS/uL
  ABSOLUTE MONOCYTE: 47.33 CELLS/uL
  ABSOLUTE SEGMENTED NEUTROPHIL: 387.67 CELLS/uL
  BASOPHIL: 0%
  EOSINOPHIL: 0%
  ERYTHROCYTE COUNT: 6.01 x10E6/uL
  HEMATOCRIT: 36.43%
  HEMOGLOBIN: 13.9 G/DL
  LEUKOCYTE COUNT: 9.1 x10E3/uL
  LYMPHOCYTE: 94.67%
  MEAN CORPUSCULAR HEMOGLOBIN: 23.2 pg
  MEAN CORPUSCULAR HEMOGLOBIN CONCENTRATION: 38.17 G/DL
  MEAN CORPUSCULAR VOLUME: 60.73 fL
  MONOCYTE: 0.67%
  NEUTROPHIL: 4.67%
  NUCLEATED RED BLOOD CELLS: 0.33 /100WBC
  PLATELET COUNT: 1215.33 x10E3/uL
  ALANINE AMINOTRANSFERASE: 83.67 u/L
  ALBUMIN: 4.23 G/DL
  ALKALINE PHOSPHATASE: 427.67 u/L
  ASPARTATE AMINOTRANSFERASE: 78.33 u/L
  BLOOD UREA NITROGEN: 13.67 mg/dL
  CARBON DIOXIDE: 35 mmol/L
  CHLORIDE: 99.33 MEQ/L
  CHOLESTEROL: 86.33 mg/dL
  CREATINE PHOSPHOKINASE: 161.33 u/L
  CREATININE: 0.16 mg/dL
  GLUCOSE: 163 mg/dL
  LACTATE DEHYDROGENASE: 134.33 u/L
  LIPASE: 11 u/L
  PHOSPHORUS: 9.6 mg/dL
  POTASSIUM: 5.19 MEQ/L
  SODIUM: 143.17 MEQ/L
  TOTAL BILIRUBIN: 0.17 mg/dL
  TOTAL PROTEIN: 6.1 G/DL
  URIC ACID: 0.37 mg/dL
[2]
  ABSOLUTE BASOPHIL: 0 CELLS/uL
  ABSOLUTE EOSINOPHIL: 36.33 CELLS/uL
  ABSOLUTE LYMPHOCYTE: 10590.67 CELLS/uL
  ABSOLUTE MONOCYTE: 0 CELLS/uL
  ABSOLUTE SEGMENTED NEUTROPHIL: 573 CELLS/uL
  BASOPHIL: 0%
  EOSINOPHIL: 0.33%
  ERYTHROCYTE COUNT: 5.39 x10E6/uL
  HEMATOCRIT: 32.73%
  HEMOGLOBIN: 13.17 G/DL
  LEUKOCYTE COUNT: 11.2 x10E3/uL
  LYMPHOCYTE: 94.67%
  MEAN CORPUSCULAR HEMOGLOBIN: 24.43 pg
  MEAN CORPUSCULAR HEMOGLOBIN CONCENTRATION: 40.2 G/DL
  MEAN CORPUSCULAR VOLUME: 60.73 fL
  MONOCYTE: 0%
  NEUTROPHIL: 5%
  NUCLEATED RED BLOOD CELLS: 0 /100WBC
  PLATELET COUNT: 918 x10E3/uL
  ALANINE AMINOTRANSFERASE: 102.67 u/L
  ALBUMIN: 3.83 G/DL
  ALKALINE PHOSPHATASE: 517.33 u/L
  ASPARTATE AMINOTRANSFERASE: 96 u/L
  BLOOD UREA NITROGEN: 13 mg/dL
  CARBON DIOXIDE: 26 mmol/L
  CHLORIDE: 95 MEQ/L
  CHOLESTEROL: 89.67 mg/dL
  CREATINE PHOSPHOKINASE: 253 u/L
  CREATININE: 0.15 mg/dL
  GLUCOSE: 137.33 mg/dL
  LACTATE DEHYDROGENASE: 118.33 u/L
  LIPASE: 12.33 u/L
  PHOSPHORUS: 10.77 mg/dL
  POTASSIUM: 5.65 MEQ/L
  SODIUM: 138.1 MEQ/L
  TOTAL BILIRUBIN: 0.17 mg/dL
  TOTAL PROTEIN: 5.5 G/DL
  URIC ACID: 0.6 mg/dL
[3]
  ABSOLUTE BASOPHIL: 0 CELLS/uL
  ABSOLUTE EOSINOPHIL: 43.33 CELLS/uL
  ABSOLUTE LYMPHOCYTE: 8832 CELLS/uL
  ABSOLUTE MONOCYTE: 95.67 CELLS/uL
  ABSOLUTE SEGMENTED NEUTROPHIL: 595.67 CELLS/uL
  BASOPHIL: 0%
  EOSINOPHIL: 0.33%
  ERYTHROCYTE COUNT: 5.74 x10E6/uL
  HEMATOCRIT: 35.13%
  HEMOGLOBIN: 13.57 G/DL
  LEUKOCYTE COUNT: 9.57 x10E3/uL
  LYMPHOCYTE: 92%
  MEAN CORPUSCULAR HEMOGLOBIN: 23.67 pg
  MEAN CORPUSCULAR HEMOGLOBIN CONCENTRATION: 38.63 G/DL
  MEAN CORPUSCULAR VOLUME: 61.23 fL
  MONOCYTE: 1%
  NEUTROPHIL: 6.67%
  NUCLEATED RED BLOOD CELLS: 0.67 /100WBC
  PLATELET COUNT: 1240.33 x10E3/uL
  ALANINE AMINOTRANSFERASE: 89 u/L
  ALBUMIN: 3.93 G/DL
  ALKALINE PHOSPHATASE: 342 u/L
  ASPARTATE AMINOTRANSFERASE: 87.67 u/L
  BLOOD UREA NITROGEN: 14.67 mg/dL
  CARBON DIOXIDE: 34 mmol/L
  CHLORIDE: 99.5 MEQ/L
  CHOLESTEROL: 78.33 mg/dL
  CREATINE PHOSPHOKINASE: 245 u/L
  CREATININE: 0.15 mg/dL
  GLUCOSE: 170.67 mg/dL
  LACTATE DEHYDROGENASE: 145 u/L
  LIPASE: 12.67 u/L
  PHOSPHORUS: 10.53 mg/dL
  POTASSIUM: 5.47 MEQ/L
  SODIUM: 141.95 MEQ/L
  TOTAL BILIRUBIN: 0.17 mg/dL
  TOTAL PROTEIN: 5.57 G/DL
  URIC ACID: 0.67 mg/dL
